Consider one compound from PMC8184911, “A small molecule HIF-1α stabilizer that accelerates diabetic wound healing” (Nature Communications, 2021).

The target in the assay is T1, Von Hippel-Lindau (VHL) (Homo sapiens, UniProt P40337).
T1 construct: human recombinant VHL:ElonginB:ElonginC (VBC) complex; with ElonginB, ElonginC
As to the kind of experiment: fluorescence-based protein thermal shift assay of purified VBC ([…] VH298, positive control, shift ca. […] °C). It is filed as binding. The conditions noted are these: read-out: fluorescence-based protein thermal shift assay of purified VBC (100 μM VH298, po).

T1 sequence (P40337 whole entry): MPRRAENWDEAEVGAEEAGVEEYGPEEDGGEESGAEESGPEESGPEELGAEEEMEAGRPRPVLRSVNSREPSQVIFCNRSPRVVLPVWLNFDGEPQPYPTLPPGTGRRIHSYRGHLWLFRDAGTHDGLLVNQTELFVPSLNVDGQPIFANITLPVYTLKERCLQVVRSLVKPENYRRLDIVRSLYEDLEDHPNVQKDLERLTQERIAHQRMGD
T1 sequence (Q15370 whole entry partner): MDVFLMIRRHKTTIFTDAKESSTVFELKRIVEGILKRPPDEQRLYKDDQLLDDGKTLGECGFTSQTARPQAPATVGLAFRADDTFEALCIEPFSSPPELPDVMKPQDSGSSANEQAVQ
T1 sequence (Q15369 whole entry partner): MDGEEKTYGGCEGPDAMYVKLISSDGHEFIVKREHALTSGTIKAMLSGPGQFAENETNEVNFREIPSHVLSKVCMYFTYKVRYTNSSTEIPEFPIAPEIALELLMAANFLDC

With `Cc1ncsc1-c1ccc(CNC(=O)[C@@H]2C[C@@H](O)CN2C(=O)[C@@H](NC(=O)C2(C#N)CC2)C(C)(C)C)cc1` [VH298, (2 S, 4 R)-1-((S)-2-(1-cyanocyclopropanecarboxamido)-3,3-dimethylbutanoyl)-4-hydroxy-N-(4-(4-methylthiazol-5-yl)benzyl) pyrrolidine-2-carboxamide], the ΔTm at 100 µM is approximately 5 °C.
